A short description of data set [1]: Brain tissue binding, rapid equilibrium dialysis. It is filed as in vitro ADME, rat. Here is the method:
Method: rapid equilibrium dialysis.
Test System Mouse Brain Homogenate 10% w/v in PBS
Incubation Time 5 h (mouse) or 4 h (rat)
No. of Replicates Two (mouse) or three (rat)
Buffer Phosphate buffer saline, pH 7.4
% Unbound in brain % Bound in brain %
Compound Species / Matrix homogenate SD homogenate Recovery
Background: In equilibrium dialysis only unbound substance equilibrates across the membrane.

Data set [2] has as its target T1, human Notum (81–451 Cys330Ser) (Homo sapiens, UniProt Q6P988, C330S).
T1 construct: human Notum (81–451 Cys330Ser) as the enzyme; made in house
T1 sequence (Q6P988 81-451 C330S): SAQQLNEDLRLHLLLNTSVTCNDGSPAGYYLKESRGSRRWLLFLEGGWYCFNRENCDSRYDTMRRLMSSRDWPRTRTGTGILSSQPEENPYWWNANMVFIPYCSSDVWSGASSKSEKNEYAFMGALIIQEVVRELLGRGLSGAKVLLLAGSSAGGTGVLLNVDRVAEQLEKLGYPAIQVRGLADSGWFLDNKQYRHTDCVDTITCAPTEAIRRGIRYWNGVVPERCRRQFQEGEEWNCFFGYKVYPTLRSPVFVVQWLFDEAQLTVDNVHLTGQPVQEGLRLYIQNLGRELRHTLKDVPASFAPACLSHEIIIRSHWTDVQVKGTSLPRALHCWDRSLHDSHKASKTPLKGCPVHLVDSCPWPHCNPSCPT
Briefly: Notum OPTS biochemical assay. The following applies: for IC50: OPTS substrate, mean, read-out: Notum IC50. The text has this: The optimization of 6 to deliver this profile was directed at three principle areas of these hit structures: (1) aryl ring 7 (Table 1); (2) the C4 substituent on triazole 8 (Table 2); and (3) further fine-tuning of the triazole 9 (Table 3). […] This assay was used to establish SAR and to identify preferred leads for additional studies.
Methods have been described in detail elsewhere.[23]−[26] Representative concentration–response curves are provided in the Supporting Information.

The nature of data set [3]: Aqueous solubility in PBS (pH 7.4). It is filed as physicochemical. Conditions: for solubility: PBS pH 7.4, read-out: aq. solubility; for solubility thermodynamic: PBS, pH 7.4, n = 2, read-out: Thermodynamic Solubility @ RT, mean. The text has this:
(§1) Biosciences (Hyderabad, India) or WuXi AppTec (Shanghai, China).
(§2) Table S1: Representative assay protocol

Data set [4] is described as follows: Stability in mouse liver microsomes. The following applies: for MLM Stability Cli mean / half-life: Table S4; for half-life: mouse, liver microsomes, read-out: MLM Stability t1/2. It is filed as in vitro ADME. The arrangement: MLM Stability Cli mean: unit not given here.
Data set [5] can be described thus: Stability in human liver microsomes. It is filed as in vitro ADME. Further details: HLM Stability Cli mean: unit not given here. Conditions: for half-life: human, liver microsomes, read-out: HLM Stability t1/2. (Liver microsomes are a subcellular fraction often used to study metabolism.)
Another data set is described as follows: in vivo. Further details: species or system mouse. The following applies: mouse, p.o. 10 mg/kg. As to the method: Mouse pharmacokinetic (PK) data was generated at Charles River Laboratories (Groningen, Netherlands) and GVK
Biosciences (Hyderabad, India). Rat PK was performed by WuXi AppTec (Shanghai, China).
Animal Testing Declaration: All in life phase studies were conducted in accordance with local Ethics Review
process. See, statements from each company.

The nature of a further data set: in vitro. Conditions: dog.
Another data set has as its system MDR1 (P-gp). Description: in vitro. Conditions: dog.
The next data set relates to P-gp (MDR1). Briefly: in vitro. Conditions: dog; for efflux ratio: MDCK-MDR1, MDCK-MDR1 efflux ratio (ER).
Data set [6] is described as follows: Metabolic stability in mouse hepatocytes.
For data set [7] the following is noted: mouse PK, comparable study; cited from earlier work.
Data set [8] can be described thus: Distribution coefficient LogD7.4 (shake flask). It is filed as physicochemical. Conditions: for logD at 1 h: 1-octanol/10 mM phosphate buffer, pH 7.4, octanol/buffer. As to the method: Molecular properties (MW, clogP, and TPSA) were calculated with ChemDraw Professional v16.0.1.4(77). Distribution coefficients (LogD7.4) were measured using the shake flask method.
as §1
A. Distribution coefficient (LogD7.4):
as §2
Octanol/buffer partition coefficient. 500 µL of organic phase (1-octanol) was added to each well of a 2 mL deep well plate, followed by 500 µL of buffer and 15 µL of test substance was added. The plate was vortexed for 1 hr on a plate shaker at 1200 Method rpm. After incubation, the samples were allowed to equilibrate for 20 min and then centrifuged at 4000 rpm for 30 min for complete phase separation and analysed by […]
Buffer 10 mM phosphate buffer
Test compound concentration 0.15 mM
End Point Fractional distribution of test compound between octanol and buffer […]
B. Aqueous solubility at pH 7.4:
Thermodynamic Solubility @ RT

The mark [9] stands for this setting: MDCK-MDR1, MDCK-MDR1 AB Papp, apical to basal.
[10] abbreviates: MDCK-MDR1, MDCK-MDR1 BA Papp, basal to apical.
Where [11] appears, read: MDCK-MDR1, MDR1-MDCKII A to B % Recovery.
Setting [12] is: MDCK-MDR1, MDR1-MDCKII B to A % Recovery.

Values after ≈ are worked out from the molar mass of the structure shown. Values joined by “and” are separate entries in the source; they are usually repeats but may differ in a detail not shown here. Identical values can stand only once.

The term fraction unbound denotes the share of the substance not bound to proteins or other matrix. The IC50 is the point on the concentration scale where inhibition reaches its midpoint. A word on the solubility: it is how much of the substance goes into solution per volume. A word on the thermodynamic solubility: it is solubility found after equilibrating the solid with the medium. A word on the Cmax: it is the maximum level reached in the sampled fluid or tissue. By Papp is commonly meant a coefficient for how fast a substance crosses the barrier. Usually efflux ratio stands for the permeability from basolateral to apical divided by that in the opposite direction, in the common usage. One may read the logD as the decadic logarithm of the distribution of all forms, ionised or not, between an organic phase and buffer at a given pH.

As for `CC(C)NCC(O)COc1cccc2ccccc12` (centres unmarked) [Propranolol, reference compound], the free fraction (fraction unbound) at 4 h, 2 µM in data set [1] (brain homogenate, pH 7.4, SD rat, 4 h) came to 0.026. This compound came in with a recovery at 4 h, 2 µM in data set [1] (pH 7.4, SD rat brain homogenate) of 78.2%. For the same compound, the “Brain binding, % bound” value in data set [1] (rat brain homogenate) stood at 97.4%.
As for `OCc1cn(-c2ccc(Cl)c(C(F)(F)F)c2Cl)nn1` [7y, ((2,4-Dichloro-3-(trifluoromethyl)phenyl)-1H-1,2,3-triazol-4-yl)methanol], in [2], the “fold more active than hit 6b” value came to 50 fold, the “fold more active than unsubstituted phenyl 7a” value is reported as 10,000 fold and the IC50 stood at 9.5 ± 0.2 nM. In [3], the solubility was 210 µg/mL and 680 µM; the thermodynamic solubility came to 213 µg/mL (≈ 683 µM). In [4], the “MLM Cli” value came to 6.7 μL/min/mg protein, the “MLM Stability Cli mean” value stood at 6.65 and the half-life came to 1.75 h. In addition, the “HLM Cli” value in [5] was 1.7 μL/min/mg protein. Further, in data set [5] (Table S4), the “HLM Stability Cli mean” value is given as 1.65 and the half-life came out at 9.21 h. Moreover, the Kp in “in vivo” (male, C57/BL6, brain and plasma, po, AUC0–inf brain/plasma, total drug, read-out: brain-to-plasma ratio (Kp)) stood at 1.2. In addition, in the data set “in vivo” (plasma), the “AUC0–inf” value is on record as 150 ng·h/mL and the Cmax was found to be 300 ng/mL. Also, the Papp in “in vitro” (setting [9]) was 46 ×10⁻⁶ cm/s. In the data set “in vitro” (setting [10]), this compound showed an apparent permeability (Papp) of 28 ×10⁻⁶ cm/s. In the data set with MDR1 (P-gp) (setting [11]), this compound came in with a recovery of 94.1%. The recovery in the data set on MDR1 (P-gp) (setting [12]) stood at 97.5%. Also, the Papp in the data set with P-gp (MDR1) (setting [9]) turned out to be 45.9 ×10⁻⁶ cm/s. In the data set with P-gp (MDR1) (setting [10]), this compound displayed a Papp of 27.8 ×10⁻⁶ cm/s. For the same compound, the efflux ratio in the data set on P-gp (MDR1) is 0.61. Further, in [6], the “mouse hepatocytes Cli” value came to 48 μL/min/10^6 cells. In [6] (mouse, hepatocytes), this compound gave a half-life of 0.598 h.
On to `Cc1c(C(F)(F)F)oc2ncnc(SCC(=O)N3CC(=O)N(C)C3)c12` [compound 3], for which, in data set [7], the “brain-to-plasma ratio Kp” value is 0.29.
Turning to `COCCc1ccc(OCC(O)CNC(C)C)cc1` (centres unmarked) [Metoprolol, reference compound], the pH-dependent lipophilicity (logD) at 1 h in data set [8] is -0.27.
With `OCc1cn(-c2ccc(Cl)c(Cl)c2)nn1` [6b, ((3,4-Dichlorophenyl)-1H-1,2,3-triazol-4-yl)methanol], the logD at 1 h in [8] came out at 2.41. For the same compound, in data set [8] (octanol/buffer, pH 7.4), the LogD7.4 was determined as 2.4. The solubility in data set [3] was 100 µg/mL (≈ 410 µM). Besides, in data set [3], the thermodynamic solubility came to 104 µg/mL (≈ 426 µM). Further, the “MLM Cli” value in data set [4] is 88 μL/min/mg protein. Further, the half-life in data set [4] stood at 0.263 h; in [5] (Table S4), 1.92 h. Further, the “HLM Cli” value in [5] is listed as 12 μL/min/mg protein. Further, the Papp in the data set “in vitro” (setting [9]) was found to be 57 ×10⁻⁶ cm/s; in the data set “in vitro” (setting [10]), 59 ×10⁻⁶ cm/s; in the data set on P-gp (MDR1) (setting [9]), 56.6 ×10⁻⁶ cm/s; in the data set on P-gp (MDR1) (setting [10]), 58.3 ×10⁻⁶ cm/s. Moreover, the recovery stood at 80.7% with MDR1 (P-gp) (setting [11]) and 87.2% with MDR1 (P-gp) (setting [12]).
Turning to `FC(F)(F)c1c(Cl)cnc(-n2ccnn2)c1Cl` [9c, 3,5-Dichloro-2-(1H-1,2,3-triazol-1-yl)-4-(trifluoromethyl)pyridine], in data set [2], the IC50 stood at 7.5 ± 1.6 nM. Also, the solubility in data set [3] is 400 µg/mL and 1400 µM. Also, the solubility (thermodynamic) in [3] was 399 µg/mL (≈ 1410 µM). For the same compound, the “MLM Cli” value in [4] is 4.9/ND μL/min/mg protein. For the same compound, the “MLM Stability Cli mean” value in [4] is 4.94. The half-life in data set [4] turned out to be 2 h. In addition, the apparent permeability (Papp) in the data set “in vitro” (setting [9]) came to 2 ×10⁻⁶ cm/s; in the data set “in vitro” (setting [10]) it was 5 ×10⁻⁶ cm/s; in the data set on P-gp (MDR1) (setting [9]), 1.74 ×10⁻⁶ cm/s; in the data set on P-gp (MDR1) (setting [10]) it was 4.88 ×10⁻⁶ cm/s. Also, the values for the recovery with MDR1 (P-gp) (setting [11]) and in the data set on MDR1 (P-gp) (setting [12]) were 5.93% and 65.2%, respectively. Besides, the efflux ratio with P-gp (MDR1) is 2.81.
Regarding `[2H]c1nnn(-c2ccc(Cl)c(C(F)(F)F)c2Cl)c1[2H]` [d2-8l, 1-(2,4-Dichloro-3-(trifluoromethyl)phenyl)-1H-1,2,3-triazole-4,5-d2], in data set [3], the solubility is 44 µg/mL and 155 µM. The thermodynamic solubility in data set [3] is 44 µg/mL (≈ 155 µM). Further, the “MLM Cli” value in data set [4] is 5.4 μL/min/mg protein and 5.4/ND μL/min/mg protein. Besides, the half-life in data set [4] was found to be 2.15 h. The Papp in “in vitro” (setting [9]) is 48 ×10⁻⁶ cm/s; in the data set “in vitro” (setting [10]), 35 ×10⁻⁶ cm/s; with P-gp (MDR1) (setting [9]), 47.8 ×10⁻⁶ cm/s; in the data set with P-gp (MDR1) (setting [10]), 35.4 ×10⁻⁶ cm/s. Also, the results for the recovery in the data set on MDR1 (P-gp) (setting [11]) and in the data set on MDR1 (P-gp) (setting [12]) were 102% and 111%, respectively.
